“Also recorded” adds a separate entry of the source.
Tests used:
RH116 gene = assay: Semiquantitative RT-PCR of RH116 gene expression in PBMCs of healthy donors; format: cell-based, human; settings: 10 healthy controls, in particular after 6 hours, 10 μg/ml
Procedure: (§1) The total cellular RNA extracted using the RNA plus kit (Q-BIOgene, Illkirch, France) is pretreated with DNAse I. Synthesis of the first strand on the polyA+ RNA was primed with a p(dT)15 primer (BOERHINGER MANNHEIM, ROCHE DIAGNOSTICS, France) and carried out with the reverse transcriptase derived from the Moloney murine leukemia virus (M-MLV) (PROMEGA, Madison, Calif., USA) (1 hour at 37° C., 3 min at 92° C.). The resulting cDNA is then subjected to 25 to 35 repeat amplification cycles with the AmpliTaq Gold polymerase (APPLIED BIOSYSTEMS). PCR amplification of the GAPDH sequences is carried out in order to obtain an internal control. […]
PBMCs of patients (P) infected with HIV or of control healthy donors (C) are isolated, depleted of CD8+ lymphocytes (Dynabeads, Dynal) and stimulated with phytohemagglutinin, PHA (5 μg/ml), for 3 days. […] The number of amplification cycles was determined beforehand (35 cycles). The amplified fragments are visualized on an agarose gel (1%) in the presence of ethidium bromide, and then quantified using the Imager master program (Pharmacia). […] The results are then expressed as % increase or % inhibition of expression of the gene compared with the untreated cells. […]

[1] = system: human immunodeficiency virus (HIV); settings: macrophages, dendritic cells, PBMCs of infected patients; cited from earlier work
RH116 messenger RNA = assay: Semiquantitative RT-PCR of RH116 mRNA in CD8-depleted PBMCs of HIV-1 infected patients; format: cell-based, human; settings: for maximum mean inhibition of expression of the RH116 messenger RNA: murabutide 10 μg/ml
Source text: Venous blood is collected from patients sero-positive for HIV-1 and peripheral blood mononuclear cells (PBMCs) are isolated by centrifugation on Ficoll-Hypaque (AMERSHAM PHARMACIA BIOTECH, Uppsala, Sweden). The cells are washed carefully in order to remove the platelets and are depleted of CD8+ cells using electro-magnetic beads covered with an anti-CD8 antibody (DYNAL, Oslo, Norway). The depleted PBMCs obtained using the manufacturer's protocol contain less than 3% of CD8+ cells after analysis by flow cytometry. […]. Next, the PBMCs are cultured and then recovered in the presence or absence of murabutide (N-acetylmuramyl-L-alanyl-D-glutamine-n-butyl ester) (provided by ISTAC SA, Lille, France) (10 μg/ml) and interleukin 2 (IL-2) (10 μg/ml) for 6 or 24 hours.
as §1
PBMCs of patients (P) infected with HIV or of control healthy donors (C) are isolated, depleted of CD8+ lymphocytes (Dynabeads, Dynal) and stimulated with phytohemagglutinin, PHA (5 μg/ml), for 3 days. […] The number of amplification cycles was determined beforehand (35 cycles). The amplified fragments are visualized on an agarose gel (1%) in the presence of ethidium bromide, and then quantified using the Imager master program (Pharmacia). […]

[2] = system: PBMCs of CD8 lymphocyte-depleted patients; format: cell-based, human
Source text: Specifically, MB inhibits by 70 to 100% the level of HIV viral protein p24 in the culture supernatants. This effect correlates with the level of expression of viral messenger RNAs (nonspliced and single-spliced).

[3] = in vivo; cited from earlier work

N-acetylmuramyl-L-alanyl-D-glutamine-n-butyl ester [murabutide]
expression of the RH116 gene compared with untreated cells (RH116 gene): increases the level of expression; also recorded: very significant increase
HIV replication [1]: inhibits
expression of the RH116 gene compared with untreated cells (RH116 messenger RNA; 12 patients, 6 or 24 h, 10 μg/ml): significant inhibition
maximum mean inhibition of expression of the RH116 messenger RNA (RH116 messenger RNA; 6 hours, patient No. 5): 90%
maximum mean inhibition of expression of the RH116 messenger RNA (RH116 messenger RNA; 24 hours, patient No. 3): 57%
number of live cells (lack of toxicity) [2]: remain unchanged
clinical tolerance [3]: good clinical tolerance
inflammatory reactions [3]: does not induce inflammatory reactions
pyrogenicity [3]: not pyrogenic
toxicity in clinical studies [3]: has not shown severe toxicity

From patent US20040086500A1, “Rh116 polypeptides and its fragments and polynucleotides encoding said polypeptides and therapeutic uses” (priority 2000, published 2004)
